One test relates to Aβ1-42. Description: Measurement of Aβ1-42 in culture medium of 7W WT APP751 CHO cells by ELISA.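 On Aβ1-42 (% of control): 5 µM test compound but RI-coded compounds at 10 µM for 24 hours.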 In kind it is cell-based, Chinese hamster. As to conditions: for activity at 5 µM: Cricetulus griseus, 5 μM test compound, CHO cells stably transfected with human APP751, culture medium, ELISA, control DMSO.
A further test deals with Aβ1-40. Description: Measurement of Aβ1-40 in culture medium of 7W WT APP751 CHO cells by ELISA.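 On all read-outs here: 5 µM test compound but RI-coded compounds at 10 µM for 24 hours.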 In kind it is cell-based, Chinese hamster. The conditions noted are these: for activity at 5 µM: Cricetulus griseus, 5 μM test compound, CHO cells stably transfected with human APP751, culture medium, ELISA, control DMSO.
[1] abbreviates: CHO cells that overexpress APP751, zero = below the detection limit of the assay.
[2] abbreviates: Table 1, 0 = no detectable amount, read-out: Aβ1-42 (% of control).
The mark [3] stands for this setting: Table 1, 0 = no detectable amount.

Structures can show the parent of a compound that is named as a salt. Where two headings read alike, the source gives them in different places.

Regarding `N#CC1=C(N)N(Cc2ccccc2)C2=C(COC/C2=C/c2cccnc2)C1c1cccnc1` (centres unmarked) [ST014245, 2-amino-1-benzyl-4-(3-pyridyl)-8-(3-pyridylmethylene)-1,4,7-trihydro-5H-pyrano[4,3-b]pyridine-3-carbonitrile], in the test on Aβ1-42 (setting [1]), the “Aβ1-42 (% of control)” value was 53.59 % of control. Further, the “Aβ1-40 (% of control)” value in the test on Aβ1-40 (setting [1]) is listed as 75.44 % of control.
Consider `N#Cc1c(S)[nH]c(C(F)(F)F)cc1=O` [ST014350, 4-oxo-2-sulfanyl-6-(trifluoromethyl)hydropyridine-3-carbonitrile, 4-methylmorpholine salt], for which the activity at 5 µM with Aβ1-42 (Table 3, read-out: Aβ-42 (% of control)) stood at 46.1%; with Aβ1-40 (Table 3), 81.8%.
In the case of `CCN(CC)c1ccc(C2C(C(=O)OC(C)C)=C(C)NC3=C2C(=O)CC(c2ccccc2)C3)cc1` (centres unmarked) [ST014875, methylethyl 4-[4-(diethylamino)phenyl]-2-methyl-5-oxo-7-phenyl-1,4,6,7,8-pentahydroquinoline-3-carboxylate], the activity at 5 µM with Aβ1-42 (setting [2]) amounted to 95.7%; with Aβ1-40 (setting [3]), 54.2%.
The like results for `CC1=C(C(=O)OCc2ccccc2)C(c2ccccc2C(F)(F)F)C2=C(CC(C)(C)CC2=O)N1` (centres unmarked) [ST014881, phenylmethyl 2,7,7-trimethyl-5-oxo-4-[2-(trifluoromethyl)phenyl]-1,4,6,7,8-pentahydroquinoline-3-carboxylate] were, in that order, 49.9% and 0%.
The matching figures for `CC1=C(C(=O)OC2CCCCC2)C(c2ccccc2C(F)(F)F)C2=C(CCCC2=O)N1` (centres unmarked) [ST014882, cyclohexyl 2-methyl-5-oxo-4-[2-(trifluoromethyl)phenyl]-1,4,6,7,8-pentahydroquinoline-3-carboxylate]: 91.8% and 39.5%.
For the compound `CC1=C(C(=O)OCCc2ccccc2)C(c2ccc(Cl)cc2Cl)C2=C(CCCC2=O)N1` (centres unmarked) [ST014884, 2-phenylethyl 4-(2,4-dichlorophenyl)-2-methyl-5-oxo-1,4,6,7,8-pentahydroquinoline-3-carboxylate], the activity at 5 µM was 52.8% in the test with Aβ1-42 (setting [2]) and 62% in the test with Aβ1-40 (setting [3]).
The matching figures for `CC1=C(C(=O)OCCc2ccccc2)C(c2cc3c(cc2Br)OCO3)C2=C(CC(C)(C)CC2=O)N1` (centres unmarked) [ST014885, 2-phenylethyl 4-(6-bromo(2H-benzo[d]1,3-dioxolen-5-yl))-2,7,7-trimethyl-5-oxo-1,4,6,7,8-pentahydroquinoline-3-carboxylate]: 87.5% and 39.5%.
`CCc1ccc(C2C(C(=O)OCCOc3ccccc3)=C(C)NC3=C2C(=O)CC(C)(C)C3)cc1` (centres unmarked) [ST014886, 2-phenoxyethyl 4-(4-ethylphenyl)-2,7,7-trimethyl-5-oxo-1,4,6,7,8-pentahydroquinoline-3-carboxylate]: the results for the activity at 5 µM in the test with Aβ1-42 (setting [2]) and with Aβ1-40 (setting [3]) were 65.1% and 21.6%, respectively.
The matching figures for `CC1=C(C(=O)OCCOc2ccccc2)C(c2ccc(Br)cc2)C2=C(CCCC2=O)N1` (centres unmarked) [ST014890, 2-phenoxyethyl 4-(4-bromophenyl)-2-methyl-5-oxo-1,4,6,7,8-pentahydroquinoline-3-carboxylate]: 67.5% and 13.2%.
The like results for `CC1=C(C(=O)OCCOc2ccccc2)C(c2ccc(F)cc2)C2=C(CCCC2=O)N1` (centres unmarked) [ST014891, 2-phenoxyethyl 4-(4-fluorophenyl)-2-methyl-5-oxo-1,4,6,7,8-pentahydroquinoline-3-carboxylate] were, in that order, 39.3% and 51.8%.
The matching figures for `CC1=C(C(=O)OCCOc2ccccc2)C(c2ccc(OCc3ccccc3)cc2)C2=C(CCCC2=O)N1` (centres unmarked) [ST014899, 2-phenoxyethyl 2-methyl-5-oxo-4-[4-(phenylmethoxy)phenyl]-1,4,6,7,8-pentahydroquinoline-3-carboxylate]: 65.5% and 55.6%.
As for `CCCCOc1ccccc1C1C(C(=O)OCCc2ccccc2)=C(C)NC2=C1C(=O)CC(C)(C)C2` (centres unmarked) [ST014907, 2-phenylethyl 4-(2-butoxyphenyl)-2,7,7-trimethyl-5-oxo-1,4,6,7,8-pentahydroquinoline-3-carboxylate], the activity at 5 µM worked out at 83.5% with Aβ1-42 (setting [2]) and 34.6% with Aβ1-40 (setting [3]).
As for `CC1=C(C(=O)OCCOc2ccccc2)C(c2ccccc2OC(C)C)C2=C(CCCC2=O)N1` (centres unmarked) [ST014919, 2-phenoxyethyl 2-methyl-4-[2-(methylethoxy)phenyl]-5-oxo-1,4,6,7,8-pentahydroquinoline-3-carboxylate], the activity at 5 µM with Aβ1-42 (setting [2]) is 85.1%; in the test with Aβ1-40 (setting [3]), 63.4%.
For the compound `CC1=C(C(=O)OCCc2ccccc2)C(c2ccc([N+](=O)[O-])cc2)C2=C(CC(C)(C)CC2=O)N1` (centres unmarked) [ST014923, 2-phenylethyl 2,7,7-trimethyl-4-(4-nitrophenyl)-5-oxo-1,4,6,7,8-pentahydroquinoline-3-carboxylate], the results for the activity at 5 µM in the test with Aβ1-42 (setting [2]) and in the test with Aβ1-40 (setting [3]) were 28.4% and 0%, respectively.
The like results for `CCCOc1ccccc1C1C(C(=O)OCc2ccccc2)=C(C)NC2=C1C(=O)CCC2` (centres unmarked) [ST014957, phenylmethyl 2-methyl-5-oxo-4-(2-propoxyphenyl)-1,4,6,7,8-pentahydroquinoline-3-carboxylate] were, in that order, 62.8% and 0%.
For the compound `CCCOC(=O)C1=C(C)NC2=C(C(=O)CCC2)C1c1cccc(O)c1` (centres unmarked) [ST014959, propyl 4-(3-hydroxyphenyl)-2-methyl-5-oxo-1,4,6,7,8-pentahydroquinoline-3-carboxylate], the activity at 5 µM worked out at 70.2% in the test on Aβ1-42 (setting [2]) and 64% with Aβ1-40 (setting [3]).
The matching figures for `C=CCOC(=O)C1=C(C)NC2=C(C(=O)CCC2)C1c1ccc(OC)c(OC)c1OC` (centres unmarked) [ST014969, prop-2-enyl 2-methyl-5-oxo-4-(2,3,4-trimethoxyphenyl)-1,4,6,7,8-pentahydroquinoline-3-carboxylate]: 83.3% and 39.7%.
The matching figures for `CCc1ccc(C2C(C(=O)OCc3ccccc3)=C(C)NC3=C2C(=O)CCC3)cc1` (centres unmarked) [ST015031, phenylmethyl 4-(4-ethylphenyl)-2-methyl-5-oxo-1,4,6,7,8-pentahydroquinoline-3-carboxylate]: 71.3% and 33.1%.
The like results for `CCOc1cc(C2C(C(=O)OC(C)C)=C(C)NC3=C2C(=O)CCC3)ccc1O` (centres unmarked) [ST015043, methylethyl 4-(3-ethoxy-4-hydroxyphenyl)-2-methyl-5-oxo-1,4,6,7,8-pentahydroquinoline-3-carboxylate] were, in that order, 68.8% and 95.9%.
On to `CCCOc1ccccc1C1C(C(=O)OCCc2ccccc2)=C(C)NC2=C1C(=O)CC(C)(C)C2` (centres unmarked) [ST015048, 2-phenylethyl 2,7,7-trimethyl-5-oxo-4-(2-propoxyphenyl)-1,4,6,7,8-pentahydroquinoline-3-carboxylate], for which the activity at 5 µM in the test with Aβ1-42 (setting [2]) stood at 88.7%; in the test on Aβ1-40 (setting [3]), 37.9%.
The matching figures for `CC1=C(C(=O)OCCc2ccccc2)C(c2ccccc2OC(C)C)C2=C(CC(C)(C)CC2=O)N1` (centres unmarked) [ST015049, 2-phenylethyl 2,7,7-trimethyl-4-[2-(methylethoxy)phenyl]-5-oxo-1,4,6,7,8-pentahydroquinoline-3-carboxylate]: 62.4% and 0%.
As to `CC1=C(C(=O)OCCc2ccccc2)C(c2ccccc2)C2=C(CC(C)(C)CC2=O)N1` (centres unmarked) [ST015054, 2-phenylethyl 2,7,7-trimethyl-5-oxo-4-phenyl-1,4,6,7,8-pentahydroquinoline-3-carboxylate], the activity at 5 µM in the test with Aβ1-42 (setting [2]) was determined as 44.2%; with Aβ1-40 (setting [3]), 29.9%.

The values above are taken from patent publication US20100119599A1 (ARCHER PHARMACEUTICALS, INC., priority 2006, published 2010).
